In brackets after ≈: the same amount, converted by molar mass. One block for each compound: values may come before it.
Key:
[1] = Cytotoxicity against human DU145 cells assessed as reduction in cell viability by MTT assay; format: functional, cell-based; conditions: DU-145
[2] = Cytotoxicity against human SKOV3 cells assessed as reduction in cell viability by MTT assay; format: functional, cell-based; conditions: SK-OV-3
[3] = Cytotoxicity against human IMR90 cells assessed as reduction in cell viability by MTT assay; format: cell-based; conditions: IMR-90
[4] = system: Pichia sporocuriosa; assay: Fungicidal activity against Issatchenkia hanoiensis MTCC 4755 assessed as microbial killing after 24 hrs; format: functional; conditions: MTCC 4755, 24 h
[5] = system: Candida albicans; assay: Antifungal activity against Candida albicans MTCC 3017 […] after 24 hrs at 30 degC by well diffusion method; format: functional; conditions: MTCC 3017, 24 h
[6] = system: Candida albicans; assay: Antifungal activity against Candida albicans MTCC 183 assessed as inhibition zone after 24 hrs at 30 degC by well diffusion method; format: functional; conditions: MTCC 183, 24 h
[7] = system: Candida albicans; assay: Antifungal activity against Candida albicans MTCC 227 assessed as inhibition zone after 24 hrs at 30 degC by well diffusion method; format: functional; conditions: MTCC 227, 24 h
[8] = system: Candida albicans; assay: Antifungal activity against Candida albicans MTCC 854 assessed as inhibition zone after 24 hrs at 30 degC by well diffusion method; format: functional; conditions: MTCC 854, 24 h
[9] = system: Candida albicans; assay: Antifungal activity against Candida albicans MTCC 1637 assessed as inhibition zone after 24 hrs at 30 degC by well diffusion method; format: functional; conditions: MTCC 1637, 24 h
[10] = system: Candida albicans; assay: Antifungal activity against Candida albicans MTCC 3018 assessed as inhibition zone after 24 hrs at 30 degC by well diffusion method; format: functional; conditions: MTCC 3018, 24 h
[11] = system: Candida albicans; assay: Antifungal activity against Candida albicans MTCC 3958 assessed as inhibition zone after 24 hrs at 30 degC by well diffusion method; format: functional; conditions: MTCC 3958, 24 h
[12] = system: Candida albicans; assay: Antifungal activity against Candida albicans MTCC 4748 assessed as inhibition zone after 24 hrs at 30 degC by well diffusion method; format: functional; conditions: MTCC 4748, 24 h
[13] = system: Candida albicans; assay: Antifungal activity against Candida albicans MTCC 7315 assessed as inhibition zone after 24 hrs at 30 degC by well diffusion method; format: functional; conditions: MTCC 7315, 24 h
[14] = system: Candida parapsilosis; assay: Antifungal activity against Candida parapsilosis MTCC 1744 assessed as inhibition zone after 24 hrs at 30 degC by well diffusion method; format: functional; conditions: Lodderomyces parapsilosis, MTCC 1744, 24 h
[15] = system: [Candida] aaseri; assay: Antifungal activity against Candida aaseri MTCC 1962 assessed as inhibition zone after 24 hrs at 30 degC by well diffusion method; format: functional; conditions: Yamadazyma aaseri, MTCC 1962, 24 h
[16] = system: Nakaseomyces glabratus; assay: Antifungal activity against Candida glabrata MTCC 3019 assessed as inhibition zone after 24 hrs at 30 degC by well diffusion method; format: functional; conditions: MTCC 3019, 24 h
[17] = system: Pichia kudriavzevii; assay: Antifungal activity against Candida krusei MTCC 3020 assessed as inhibition zone after 24 hrs at 30 degC by well diffusion method; format: functional; conditions: MTCC 3020, 24 h
[18] = system: Pichia sporocuriosa; assay: Antifungal activity against Issatchenkia hanoiensis MTCC 4755 assessed as inhibition zone after 24 hrs at 30 degC by well diffusion method; format: functional; conditions: MTCC 4755, 24 h
[19] = system: Candida albicans; assay: Fungicidal activity against Candida albicans MTCC 183 assessed as microbial killing after 24 hrs; format: functional; conditions: MTCC 183, 24 h
[20] = system: Candida albicans; assay: Fungicidal activity against Candida albicans MTCC 227 assessed as microbial killing after 24 hrs; format: functional; conditions: MTCC 227, 24 h
[21] = system: Candida albicans; assay: Fungicidal activity against Candida albicans MTCC 854 assessed as microbial killing after 24 hrs; format: functional; conditions: MTCC 854, 24 h
[22] = system: Candida albicans; assay: Fungicidal activity against Candida albicans MTCC 1637 assessed as microbial killing after 24 hrs; format: functional; conditions: MTCC 1637, 24 h
[23] = system: Candida albicans; assay: Fungicidal activity against Candida albicans MTCC 3017 assessed as microbial killing after 24 hrs; format: functional; conditions: MTCC 3017, 24 h
[24] = system: Candida albicans; assay: Fungicidal activity against Candida albicans MTCC 3018 assessed as microbial killing after 24 hrs; format: functional; conditions: MTCC 3018, 24 h
[25] = system: Candida albicans; assay: Fungicidal activity against Candida albicans MTCC 3958 assessed as microbial killing after 24 hrs; format: functional; conditions: MTCC 3958, 24 h
[26] = system: Candida albicans; assay: Fungicidal activity against Candida albicans MTCC 4748 assessed as microbial killing after 24 hrs; format: functional; conditions: MTCC 4748, 24 h
[27] = system: Candida albicans; assay: Fungicidal activity against Candida albicans MTCC 7315 assessed as microbial killing after 24 hrs; format: functional; conditions: MTCC 7315, 24 h
[28] = system: Candida parapsilosis; assay: Fungicidal activity against Candida parapsilosis MTCC 1744 assessed as microbial killing after 24 hrs; format: functional; conditions: Lodderomyces parapsilosis, MTCC 1744, 24 h
[29] = system: [Candida] aaseri; assay: Fungicidal activity against Candida aaseri MTCC 1962 assessed as microbial killing after 24 hrs; format: functional; conditions: Yamadazyma aaseri, MTCC 1962, 24 h
[30] = system: Nakaseomyces glabratus; assay: Fungicidal activity against Candida glabrata MTCC 3019 assessed as microbial killing after 24 hrs; format: functional; conditions: MTCC 3019, 24 h
[31] = system: Pichia kudriavzevii; assay: Fungicidal activity against Candida krusei MTCC 3020 assessed as microbial killing after 24 hrs; format: functional; conditions: MTCC 3020, 24 h
[32] = system: Bacillus subtilis; assay: Antibiofilm activity against Bacillus subtilis MTCC 121 after 24 hrs by crystal violet staining method; format: functional, organism-based; conditions: MTCC 121, 24 h
[33] = system: Staphylococcus aureus; assay: Antibiofilm activity against Staphylococcus aureus MTCC 96 after 24 hrs by crystal violet staining method; format: functional, organism-based; conditions: MTCC 96, 24 h
[34] = system: Micrococcus luteus; assay: Antibacterial activity against Micrococcus luteus MTCC 2470 assessed as inhibition zone after 24 hrs at 30 degC by well diffusion method; format: functional; conditions: MTCC 2470, 24 h
[35] = system: Staphylococcus aureus; assay: Antibacterial activity against Staphylococcus aureus MTCC 96 […] after 24 hrs at 30 degC by well diffusion method; format: functional; conditions: MTCC 96, 24 h
[36] = system: Staphylococcus aureus; assay: Antibacterial activity against Staphylococcus aureus MLS-16 MTCC 2940 assessed as inhibition zone after 24 hrs at 30 degC by well diffusion method; format: functional; conditions: MLS-16 MTCC 2940, 24 h
[37] = system: Bacillus subtilis; assay: Antibacterial activity against Bacillus subtilis MTCC 121 assessed as inhibition zone after 24 hrs at 30 degC by well diffusion method; format: functional; conditions: MTCC 121, 24 h
[38] = system: Escherichia coli; assay: Antibacterial activity against Escherichia coli MTCC 739 assessed as inhibition zone after 24 hrs at 30 degC by well diffusion method; format: functional; conditions: MTCC 739, 24 h
[39] = system: Pseudomonas aeruginosa; assay: Antibacterial activity against Pseudomonas aeruginosa MTCC 2453 assessed as inhibition zone after 24 hrs at 30 degC by well diffusion method; format: functional; conditions: MTCC 2453, 24 h
[40] = system: Raoultella planticola; assay: Antibacterial activity against Klebsiella planticola MTCC 530 assessed as inhibition zone after 24 hrs at 30 degC by well diffusion method; format: functional; conditions: MTCC 530, 24 h
[41] = system: Bacillus subtilis; assay: Bactericidal activity against Bacillus subtilis MTCC 121 assessed as microbial killing after 24 hrs; format: functional; conditions: MTCC 121, 24 h
[42] = system: Staphylococcus aureus; assay: Bactericidal activity against Staphylococcus aureus MTCC 96 assessed as microbial killing after 24 hrs; format: functional; conditions: MTCC 96, 24 h
[43] = system: Staphylococcus aureus; assay: Bactericidal activity against Staphylococcus aureus MLS-16 MTCC 2940 assessed as microbial killing after 24 hrs; format: functional; conditions: MLS-16 MTCC 2940, 24 h
[44] = system: Escherichia coli; assay: Bactericidal activity against Escherichia coli MTCC 739 assessed as microbial killing after 24 hrs; format: functional; conditions: MTCC 739, 24 h
[45] = system: Staphylococcus aureus; assay: Antibiofilm activity against Staphylococcus aureus MLS-16 MTCC 2940 after 24 hrs by crystal violet staining method; format: functional, organism-based; conditions: MLS-16 MTCC 2940, 24 h
[46] = system: Escherichia coli; assay: Antibiofilm activity against Escherichia coli MTCC 739 after 24 hrs by crystal violet staining method; format: functional, organism-based; conditions: MTCC 739, 24 h

Structure (SMILES): COc1cccc2c1C(=O)c1c(O)c3c(c(O)c1C2=O)C[C@@](O)(C(=O)CO)C[C@@H]3O[C@H]1C[C@H](N)[C@H](O)[C@H](C)O1 [DOXORUBICIN]
IC50 [1]: 700 nM | IC50 [2]: 700 nM | IC50 [3]: 21300 nM

MIC [5]: 7.8 µg/mL (≈ 18.7 µM) | MIC [6]: 7.8 µg/mL (≈ 18.7 µM) | MIC [7]: 7.8 µg/mL (≈ 18.7 µM) | MIC [8]: 7.8 µg/mL (≈ 18.7 µM) | MIC [9]: 7.8 µg/mL (≈ 18.7 µM) | MIC [10]: 7.8 µg/mL (≈ 18.7 µM) | MIC [11]: 7.8 µg/mL (≈ 18.7 µM) | MIC [12]: 7.8 µg/mL (≈ 18.7 µM) | MIC [13]: 7.8 µg/mL (≈ 18.7 µM) | MIC [14]: 7.8 µg/mL (≈ 18.7 µM) | MIC [15]: 7.8 µg/mL (≈ 18.7 µM) | MIC [16]: 7.8 µg/mL (≈ 18.7 µM) | MIC [17]: 7.8 µg/mL (≈ 18.7 µM) | MIC [18]: 7.8 µg/mL (≈ 18.7 µM)
Structure (SMILES): Clc1ccc(COC(Cn2ccnc2)c2ccc(Cl)cc2Cl)c(Cl)c1 (stereo unspecified) [MICONAZOLE]
MFC [4]: 7.8 µg/mL (≈ 18.7 µM) | MFC [19]: 7.8 µg/mL (≈ 18.7 µM) | MFC [20]: 15.6 µg/mL (≈ 37.5 µM) | MFC [21]: 15.6 µg/mL (≈ 37.5 µM) | MFC [22]: 15.6 µg/mL (≈ 37.5 µM) | MFC [23]: 7.8 µg/mL (≈ 18.7 µM) | MFC [24]: 7.8 µg/mL (≈ 18.7 µM) | MFC [25]: 15.6 µg/mL (≈ 37.5 µM) | MFC [26]: 7.8 µg/mL (≈ 18.7 µM) | MFC [27]: 7.8 µg/mL (≈ 18.7 µM) | MFC [28]: 7.8 µg/mL (≈ 18.7 µM) | MFC [29]: 7.8 µg/mL (≈ 18.7 µM) | MFC [30]: 15.6 µg/mL (≈ 37.5 µM) | MFC [31]: 7.8 µg/mL (≈ 18.7 µM)

Structure (SMILES): O=C(O)c1cn(C2CC2)c2cc(N3CCNCC3)c(F)cc2c1=O [CIPROFLOXACIN]
IC50 [32]: 0.7 µg/mL (≈ 2.11 µM) | IC50 [33]: 0.6 µg/mL (≈ 1.81 µM) | MIC [34]: 0.9 µg/mL (≈ 2.72 µM) | MIC [35]: 0.9 µg/mL (≈ 2.72 µM) | MIC [36]: 0.9 µg/mL (≈ 2.72 µM) | MIC [37]: 0.9 µg/mL (≈ 2.72 µM) | MIC [38]: 0.9 µg/mL (≈ 2.72 µM) | MIC [39]: 0.9 µg/mL (≈ 2.72 µM) | MIC [40]: 0.9 µg/mL (≈ 2.72 µM) | MBC [41]: 1.9 µg/mL (≈ 5.73 µM) | MBC [42]: 0.9 µg/mL (≈ 2.72 µM) | MBC [43]: 0.9 µg/mL (≈ 2.72 µM) | MBC [44]: 0.9 µg/mL (≈ 2.72 µM) | IC50 [45]: 0.4 µg/mL (≈ 1.21 µM) | IC50 [46]: 0.5 µg/mL (≈ 1.51 µM)
